# Laboratory results from ChEMBL document CHEMBL4422622, “Identification of Mineralocorticoid Receptor Modulators with Low Impact on Electrolyte Homeostasis but Maintained Organ Protection” (J Med Chem, 2019).
# Tests used:
# [1] = target: T1, Mineralocorticoid receptor (Homo sapiens, UniProt P08235)
# T1 sequence (P08235 whole entry): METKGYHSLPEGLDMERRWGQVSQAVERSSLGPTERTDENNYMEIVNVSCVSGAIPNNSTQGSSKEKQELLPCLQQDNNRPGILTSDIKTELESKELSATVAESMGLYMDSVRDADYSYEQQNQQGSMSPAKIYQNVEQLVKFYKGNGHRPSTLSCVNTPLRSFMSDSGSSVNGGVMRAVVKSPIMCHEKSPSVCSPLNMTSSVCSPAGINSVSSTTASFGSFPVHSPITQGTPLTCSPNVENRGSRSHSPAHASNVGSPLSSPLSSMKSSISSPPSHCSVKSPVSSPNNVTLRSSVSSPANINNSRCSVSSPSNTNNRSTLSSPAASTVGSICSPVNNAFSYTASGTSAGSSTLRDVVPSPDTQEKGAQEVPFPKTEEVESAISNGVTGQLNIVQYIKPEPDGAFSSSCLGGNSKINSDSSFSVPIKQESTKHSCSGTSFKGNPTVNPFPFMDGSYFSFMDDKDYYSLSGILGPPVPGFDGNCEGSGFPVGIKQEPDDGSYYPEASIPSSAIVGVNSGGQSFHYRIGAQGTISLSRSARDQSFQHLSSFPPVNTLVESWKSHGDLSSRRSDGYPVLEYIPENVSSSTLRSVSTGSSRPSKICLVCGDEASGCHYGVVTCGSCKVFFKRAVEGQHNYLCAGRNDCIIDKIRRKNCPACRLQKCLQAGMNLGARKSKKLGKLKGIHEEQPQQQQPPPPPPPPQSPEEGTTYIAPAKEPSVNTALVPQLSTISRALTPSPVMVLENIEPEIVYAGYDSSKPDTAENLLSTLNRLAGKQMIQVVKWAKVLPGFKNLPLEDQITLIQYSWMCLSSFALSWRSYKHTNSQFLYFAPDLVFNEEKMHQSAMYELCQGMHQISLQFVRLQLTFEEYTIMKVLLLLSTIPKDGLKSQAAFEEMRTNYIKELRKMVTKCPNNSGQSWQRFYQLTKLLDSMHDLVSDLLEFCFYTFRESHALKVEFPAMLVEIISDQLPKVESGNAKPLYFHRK
# Description: Antagonist activity at gal4-fused human mineralocorticoid receptor LBD expressed in UAS-MR-bla HEK293 cells by luciferase reporter gene assay
# Rattus norvegicus [2] = assay: Induction of hyperkalemia in Sprague-Dawley rat fed on low salt diet for 72 hrs assessed as increase in eplerenone-mediated Na+/K+ ratio in urine administered via oral gavage co-administered with after 8 hrs; assay type: organism-based; details: in vivo
# [3] = target: T1, Mineralocorticoid receptor; remark: listed apart in the source
# Description: Displacement of [3H]-aldosterone to human mineralocorticoid receptor LBD by radiometric binding assay
# [4] = Oral bioavailability in Han Wistar rat at 48 mg/kg by LC-MS/MS analysis; assay type: ADME, organism-based; details: in vivo
# [5] = Clearance in Han Wistar rat at 1.2 mg/kg, iv by LC-MS/MS analysis; assay type: ADME, organism-based; details: in vivo
# Rattus norvegicus [6] = assay: Induction of hyperkalemia in Sprague-Dawley rat fed on low salt diet for 72 hrs assessed as increase in Na+/K+ ratio in urine administered via oral gavage after 8 hrs; assay type: organism-based; details: in vivo
# [7] = Intrinsic clearance in Han Wistar rat hepatocytes assessed per million cells at 1 uM after 4 hrs by LC/MS/MS analysis; assay type: ADME, cell-based, Hepatocyte; details: read-out: CLH
# [8] = target: T1, Mineralocorticoid receptor; remark: listed apart in the source
# Description: Modulation activity at human mineralocorticoid receptor in human EA.hy926 cells assessed as induction of nuclear translocation of mineralocorticoid receptor in absence of aldosterone by receptor translocation assay
# [9] = Intrinsic clearance in human hepatocytes assessed per million cells at 1 uM measured up to 120 mins in presence of NADPH by LC-MS/MS analysis; assay type: ADME, cell-based, Hepatocyte; details: read-out: CLH
# [10] = Octanol-water partitioning co-efficient, log D of the compound at pH 7.4 by LC/MS/MS analysis; assay type: physicochemical
# [11] = target: T1, Mineralocorticoid receptor; remark: listed apart in the source
# Description: Modulation activity at human mineralocorticoid receptor in human EA.hy926 cells assessed as blocking of nuclear translocation of mineralocorticoid receptor in presence of aldosterone by receptor translocation assay
# [12] = Terminal half life in Han Wistar rat at 1.2 mg/kg, iv by LC-MS/MS analysis; assay type: ADME, organism-based; details: in vivo, read-out: beta t1/2 (converted)
# [13] = target: T2, Mineralocorticoid receptor (Rattus norvegicus, UniProt P22199)
# T2 sequence (P22199 whole entry): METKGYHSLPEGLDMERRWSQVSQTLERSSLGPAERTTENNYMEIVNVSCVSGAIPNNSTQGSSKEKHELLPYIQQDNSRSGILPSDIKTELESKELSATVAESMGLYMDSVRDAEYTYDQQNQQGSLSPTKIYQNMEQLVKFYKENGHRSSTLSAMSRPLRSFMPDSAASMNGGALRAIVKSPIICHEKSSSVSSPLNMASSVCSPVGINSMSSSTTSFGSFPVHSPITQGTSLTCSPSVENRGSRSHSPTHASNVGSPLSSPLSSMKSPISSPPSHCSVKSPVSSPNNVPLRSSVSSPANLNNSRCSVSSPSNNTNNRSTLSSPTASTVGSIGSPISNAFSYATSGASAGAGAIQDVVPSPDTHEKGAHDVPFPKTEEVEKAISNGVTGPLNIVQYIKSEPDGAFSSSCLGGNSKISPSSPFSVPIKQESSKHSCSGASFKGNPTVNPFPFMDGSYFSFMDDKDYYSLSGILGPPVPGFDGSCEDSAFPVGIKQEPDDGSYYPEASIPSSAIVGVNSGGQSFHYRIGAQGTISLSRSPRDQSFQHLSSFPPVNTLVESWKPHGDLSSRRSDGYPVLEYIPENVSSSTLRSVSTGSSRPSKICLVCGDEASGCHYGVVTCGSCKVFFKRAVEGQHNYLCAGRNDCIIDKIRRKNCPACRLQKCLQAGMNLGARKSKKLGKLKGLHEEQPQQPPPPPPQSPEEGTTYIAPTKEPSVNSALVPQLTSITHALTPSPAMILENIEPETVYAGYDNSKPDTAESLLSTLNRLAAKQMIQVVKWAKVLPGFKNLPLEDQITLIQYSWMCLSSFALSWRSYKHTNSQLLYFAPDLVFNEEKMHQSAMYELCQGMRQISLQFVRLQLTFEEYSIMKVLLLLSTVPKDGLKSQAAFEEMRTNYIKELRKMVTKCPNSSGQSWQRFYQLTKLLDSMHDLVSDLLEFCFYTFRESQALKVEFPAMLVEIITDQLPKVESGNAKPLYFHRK
# Description: Antagonist activity at gal4-fused rat mineralocorticoid receptor LBD in expressed in human U2OS cells by luciferase reporter gene assay
# [14] = Fraction unbound in Han Wistar rat plasma at 1 uM after 4 hrs by LC/MS/MS analysis; assay type: ADME, cell-free
# Glucocorticoid receptor = target: T3, Glucocorticoid receptor (Homo sapiens, UniProt P04150)
# T3 sequence (P04150 whole entry): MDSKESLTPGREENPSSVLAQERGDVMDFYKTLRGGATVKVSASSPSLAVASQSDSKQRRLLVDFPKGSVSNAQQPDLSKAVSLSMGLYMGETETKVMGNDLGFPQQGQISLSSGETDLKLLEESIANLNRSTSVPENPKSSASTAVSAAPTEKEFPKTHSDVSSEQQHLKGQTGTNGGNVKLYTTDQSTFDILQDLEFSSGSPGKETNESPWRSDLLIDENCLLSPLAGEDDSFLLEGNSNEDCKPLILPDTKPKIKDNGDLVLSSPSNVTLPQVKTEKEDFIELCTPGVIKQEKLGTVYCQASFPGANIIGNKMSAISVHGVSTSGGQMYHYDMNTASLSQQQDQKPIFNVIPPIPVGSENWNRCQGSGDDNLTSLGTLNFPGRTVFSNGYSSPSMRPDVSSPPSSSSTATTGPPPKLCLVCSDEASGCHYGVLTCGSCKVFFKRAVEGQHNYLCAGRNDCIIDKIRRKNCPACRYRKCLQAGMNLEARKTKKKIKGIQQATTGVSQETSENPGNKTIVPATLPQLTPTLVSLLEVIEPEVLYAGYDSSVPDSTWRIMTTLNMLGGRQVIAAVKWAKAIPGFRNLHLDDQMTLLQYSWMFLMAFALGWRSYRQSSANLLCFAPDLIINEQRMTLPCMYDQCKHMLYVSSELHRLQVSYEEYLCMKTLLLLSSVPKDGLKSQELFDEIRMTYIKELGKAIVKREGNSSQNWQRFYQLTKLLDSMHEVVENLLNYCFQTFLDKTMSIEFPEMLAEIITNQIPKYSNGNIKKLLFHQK
# Description: Binding affinity to recombinant human GR LBD by fluormone GS red-fluorescence polarization assay
# [15] = Volume of distribution at steady state in Han Wistar rat at 1.2 mg/kg, iv by LC-MS/MS analysis; assay type: ADME, organism-based; details: in vivo, read-out: Vdss
structure (smiles),measurement,setting,value
CNC(=O)C[C@H]1COc2ccc(Cl)cc2N1C(=O)c1ccc2c(c1)NC(=O)CO2,IC50,[1],1 µM
same,Activity,Rattus norvegicus [2],Toxic
same,Ki,[3],0.1 µM
same,bioavailability,[4],45%
same,clearance,[5],1.92 L/h/kg
same,Activity,Rattus norvegicus [6],Toxic
same,hepatocyte CLint at 1 µM,[7],20 µL/min/1e6 cells
same,EC50,[8],> 10 µM
same,hepatocyte CLint at 1 µM,[9],4.6 µL/min/1e6 cells
same,logD,[10],1.8
same,IC50,[11],0.1 µM
same,half-life,[12],18 min
same,IC50,[13],0.0794 µM
same,"fraction unbound at 4 h, 1 µM",[14],0.34
same,Ki,Glucocorticoid receptor,0.158 µM
same,Vd,[15],0.8 L/kg
